Test results: US20260184663A1, “INDENE COMPOUNDS, PHARMACEUTICAL COMPOSITIONS THEREOF, AND THEIR THERAPEUTIC APPLICATIONS” (NucMito Pharmaceuticals co. Ltd., priority 2022, published 2026)

Experiments:
Type in all cases: cell-based
[1] = system: alpha-smooth muscle actin (α-SMA); test: Inhibition of TGF-β induced expression of alpha-smooth muscle actin (α-SMA) in CFSC cells (western blot); conditions: compound at 10 μM, TGF-β (10 ng/mL), 24 hours, band intensity vs TGF-β only
Outline: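 CFSC hepatic stellate cells in serum-free DMEM treated 24 h at 37 °C with compound at 10 μM plus TGF-β (10 ng/mL). α-SMA measured by Western blot with β-actin, ECL detection, densitometry. Percent inhibition is decrease in band intensity versus TGF-β-only cells.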

[2] = system: A549 (lung adenocarcinoma); test: Antiproliferative activity (CCK-8 cell viability), A549; conditions: Homo sapiens, 72 h, read-out: Antiproliferative activity in cancerous cells, A549 (inhibition of cell growth); for inhibition at 3.3 µM: Compound concentration: 3.3 μM; for inhibition at 10 µM: Compound concentration: 10 μM; for inhibition at 30 µM: Compound concentration: 30 μM
Outline: (§1)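 Cells were seeded at 2,000-5,000/well (HeLa in MEM, HepG2 and SW480 in DMEM, A549 in F-12K, all with 10% FBS) and treated with compound at 3.3, 10 or 30 μM for 72 h at 37° C. CCK-8 was added for 4 h, absorbance was read at 450 nm, and viability was expressed relative to DMSO-treated wells.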

HepG2 (liver cancer) = test: Antiproliferative activity (CCK-8 cell viability), HepG2; conditions: Homo sapiens, 72 h, read-out: Antiproliferative activity in cancerous cells, HepG2 (inhibition of cell growth); for inhibition at 3.3 µM: Compound concentration: 3.3 μM; for inhibition at 10 µM: Compound concentration: 10 μM; for inhibition at 30 µM: Compound concentration: 30 μM
Outline: as §1

[3] = system: B16F10 (malignant melanoma); test: Antiproliferative activity (CCK-8 cell viability), B16F10; conditions: Mus musculus, 72 h, read-out: Antiproliferative activity in cancerous cells, B16F10 (inhibition of cell growth); for inhibition at 3.3 µM: B16-F10, Compound concentration: 3.3 μM; for inhibition at 10 µM: B16-F10, Compound concentration: 10 μM; for inhibition at 30 µM: B16-F10, Compound concentration: 30 μM
Outline: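 Attached B16F10 cells in 96-well plates were incubated with compound at 37° C for 72 h, followed by 10 μL CCK-8 reagent per well and a further 4 h incubation. A multi-well plate reader measured absorbance at 450 nm. Percent viability across replicates was calculated against DMSO vehicle-treated cells.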

[4] = system: A431 (epidermoid carcinoma); test: Antiproliferative activity (CCK-8 cell viability), A431; conditions: Homo sapiens, 72 h, read-out: Antiproliferative activity in cancerous cells, A431 (inhibition of cell growth); for inhibition at 3.3 µM: A-431, Compound concentration: 3.3 μM; for inhibition at 10 µM: A-431, Compound concentration: 10 μM; for inhibition at 30 µM: A-431, Compound concentration: 30 μM
Outline: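 Cell viability of compound-treated A431 cells was measured with a Cell Counting Kit-8. Each well received 10 μL of CCK-8 after 72 h of compound exposure, followed by 4 h incubation at 37° C. and a 450 nm plate-reader measurement. Percent viability was calculated relative to DMSO controls across replicates.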

SW480 (colon cancer) = test: Antiproliferative activity (CCK-8 cell viability), SW480; conditions: Homo sapiens, 72 h, read-out: Antiproliferative activity in cancerous cells, SW480 (inhibition of cell growth); for inhibition at 3.3 µM: Compound concentration: 3.3 μM; for inhibition at 10 µM: Compound concentration: 10 μM; for inhibition at 30 µM: Compound concentration: 30 μM
Outline: as §1

HeLa (cervical cancer) = test: Antiproliferative activity (CCK-8 cell viability), HeLa; conditions: Homo sapiens, 72 h, read-out: Antiproliferative activity in cancerous cells, HELA (inhibition of cell growth); for inhibition at 3.3 µM: Compound concentration: 3.3 μM; for inhibition at 10 µM: Compound concentration: 10 μM; for inhibition at 30 µM: Compound concentration: 30 μM
Outline: as §1

[5] = system: MDA-MB-231 (breast cancer); test: Antiproliferative activity (CCK-8 cell viability), MDA-MB-231; conditions: Homo sapiens, 72 h, read-out: Antiproliferative activity in cancerous cells, MDA-MB-231 (inhibition of cell growth); for inhibition at 3.3 µM: Compound concentration: 3.3 μM; for inhibition at 10 µM: Compound concentration: 10 μM; for inhibition at 30 µM: Compound concentration: 30 μM
Outline: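 In this CCK-8 viability assay, MDA-MB-231 cells maintained in Dulbecco's modified Eagle's medium containing 10% fetal bovine serum were placed in 96-well plates (2,000-5,000 cells/well) and treated with compound for 72 h at 37° C. A 4 h incubation with 10 μL CCK-8 followed, plates were read at 450 nm, and viability was expressed against DMSO vehicle wells across replicates.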

SMILES	inhibition at 10 µM [1] [%]	inhibition at 3.3 µM [2] [%]	inhibition at 10 µM [2] [%]	inhibition at 30 µM [2] [%]	inhibition at 3.3 µM (HepG2 (liver cancer)) [%]	inhibition at 10 µM (HepG2 (liver cancer)) [%]	inhibition at 30 µM (HepG2 (liver cancer)) [%]	inhibition at 3.3 µM [3] [%]	inhibition at 10 µM [3] [%]	inhibition at 30 µM [3] [%]	inhibition at 3.3 µM [4] [%]	inhibition at 10 µM [4] [%]	inhibition at 30 µM [4] [%]	inhibition at 3.3 µM (SW480 (colon cancer)) [%]	inhibition at 10 µM (SW480 (colon cancer)) [%]	inhibition at 30 µM (SW480 (colon cancer)) [%]	inhibition at 3.3 µM (HeLa (cervical cancer)) [%]	inhibition at 10 µM (HeLa (cervical cancer)) [%]	inhibition at 30 µM (HeLa (cervical cancer)) [%]	inhibition at 3.3 µM [5] [%]	further results
CC1=C(CC(=O)O)c2c(F)cc(F)cc2/C1=C\c1ccc(C(C)C)cc1 [D8, (Z)-2-(4,6-Difluoro-1-(4-isopropylbenzylidene)-2-methyl-1H-inden-3-yl)acetic acid]	50 to 80	< 30	30 to 50	≥ 50	< 30	< 30	≥ 50	< 30	≥ 50	≥ 50	< 30	< 30	≥ 50	< 30	< 30	≥ 50	≥ 50	≥ 50	≥ 50	30 to 50	inhibition at 10 µM [5]: ≥ 50%; inhibition at 30 µM [5]: ≥ 50%
COc1ccc(Oc2ccc(/C=C3\C(C)=C(CC(=O)O)c4cc(F)ccc43)cn2)cc1 [E1, (E)-2-(5-Fluoro-1-((6-(4-methoxyphenoxy)pyridin-3-yl)methylene)-2-methyl-1H-inden-3-yl)acetic acid]	< 30	< 30	30 to 50	30 to 50	< 30	< 30	30 to 50	< 30	< 30	30 to 50	< 30	< 30	< 30	< 30	< 30	30 to 50	< 30	< 30	30 to 50	< 30	inhibition at 10 µM [5]: < 30%; inhibition at 30 µM [5]: ≥ 50%
CC1=C(CC(=O)O)c2cc(F)cc(F)c2/C1=C/c1ccc(COc2ccccc2)cc1 [E2, (E)-2-(5,7-Difluoro-2-methyl-1-(4-(phenoxymethyl)benzylidene)-1H-inden-3-yl)-acetic acid]	50 to 80	< 30	30 to 50	≥ 50	30 to 50	≥ 50	≥ 50	≥ 50	≥ 50	≥ 50	30 to 50	≥ 50	≥ 50	≥ 50	≥ 50	≥ 50	≥ 50	≥ 50	≥ 50	< 30	inhibition at 10 µM [5]: ≥ 50%; inhibition at 30 µM [5]: ≥ 50%
CC1=C(CC(=O)O)c2ccc(F)c(F)c2/C1=C/c1ccc(Oc2ccc(F)cc2)cc1 [E3, (E)-2-(6,7-Difluoro-1-(4-(4-fluorophenoxy)benzylidene)-2-methyl-1H-inden-3-yl)acetic acid]	> 80	30 to 50	≥ 50	≥ 50	≥ 50	≥ 50	≥ 50	30 to 50	≥ 50	≥ 50	≥ 50	≥ 50	≥ 50	30 to 50	≥ 50	≥ 50	≥ 50	≥ 50	≥ 50	≥ 50	inhibition at 10 µM [5]: ≥ 50%; inhibition at 30 µM [5]: ≥ 50%
CC1=C(CC(=O)O)c2ccc(F)c(F)c2/C1=C/c1cccc(Oc2ccccc2)c1 [E4, (E)-2-(6,7-Difluoro-2-methyl-1-(3-phenoxybenzylidene)-1H-inden-3-yl)acetic acid]	> 80	< 30	≥ 50	≥ 50	< 30	30 to 50	≥ 50	< 30	≥ 50	≥ 50	< 30	< 30	≥ 50	< 30	< 30	≥ 50	30 to 50	≥ 50	≥ 50	< 30	inhibition at 10 µM [5]: 30 to 50%; inhibition at 30 µM [5]: ≥ 50%
CC1=C(CC(=O)O)c2cc(F)ccc2/C1=C/c1ccc(F)cc1OCc1ccccc1 [E5, (E)-2-(1-(2-(Benzyloxy)-4-fluorobenzylidene)-5-fluoro-2-methyl-1H-inden-3-yl)-acetic acid]	> 80	< 30	≥ 50	≥ 50	30 to 50	≥ 50	≥ 50	≥ 50	≥ 50	≥ 50	< 30	30 to 50	≥ 50	30 to 50	30 to 50	≥ 50	< 30	≥ 50	≥ 50	30 to 50	inhibition at 10 µM [5]: 30 to 50%; inhibition at 30 µM [5]: ≥ 50%
CC1=C(CC(=O)O)c2cc(F)ccc2/C1=C/c1cccc(COc2ccc(F)cc2F)c1 [E6, (E)-2-(1-(3-((2,4-Difluorophenoxy)methyl)benzylidene)-5-fluoro-2-methyl-1H-inden-3-yl)acetic acid]	> 80	< 30	< 30	≥ 50	< 30	< 30	≥ 50	< 30	30 to 50	≥ 50	< 30	30 to 50	≥ 50	< 30	30 to 50	≥ 50	< 30	< 30	≥ 50	30 to 50	inhibition at 10 µM [5]: 30 to 50%; inhibition at 30 µM [5]: ≥ 50%
